Measured values as given in article PMC8812461, “Synthesis of New 3-Arylcoumarins Bearing N-Benzyl Triazole Moiety: Dual Lipoxygenase and Butyrylcholinesterase Inhibitors With Anti-Amyloid Aggregation and Neuroprotective Properties Against Alzheimer’s Disease” (Frontiers in Chemistry, 2022).
Read-outs that look alike come from different tables or passages of the source.

Columns and labels:
[1] = target: T1, AChE (from electrophorus electricus) (Electrophorus electricus, UniProt O42275); assay: Cholinesterase inhibition assay (Ellman's method), AChE; format: biochemical; settings: test concentration not given
T1 construct: purchased Merck or Aldrich
T1 sequence (O42275 24-633): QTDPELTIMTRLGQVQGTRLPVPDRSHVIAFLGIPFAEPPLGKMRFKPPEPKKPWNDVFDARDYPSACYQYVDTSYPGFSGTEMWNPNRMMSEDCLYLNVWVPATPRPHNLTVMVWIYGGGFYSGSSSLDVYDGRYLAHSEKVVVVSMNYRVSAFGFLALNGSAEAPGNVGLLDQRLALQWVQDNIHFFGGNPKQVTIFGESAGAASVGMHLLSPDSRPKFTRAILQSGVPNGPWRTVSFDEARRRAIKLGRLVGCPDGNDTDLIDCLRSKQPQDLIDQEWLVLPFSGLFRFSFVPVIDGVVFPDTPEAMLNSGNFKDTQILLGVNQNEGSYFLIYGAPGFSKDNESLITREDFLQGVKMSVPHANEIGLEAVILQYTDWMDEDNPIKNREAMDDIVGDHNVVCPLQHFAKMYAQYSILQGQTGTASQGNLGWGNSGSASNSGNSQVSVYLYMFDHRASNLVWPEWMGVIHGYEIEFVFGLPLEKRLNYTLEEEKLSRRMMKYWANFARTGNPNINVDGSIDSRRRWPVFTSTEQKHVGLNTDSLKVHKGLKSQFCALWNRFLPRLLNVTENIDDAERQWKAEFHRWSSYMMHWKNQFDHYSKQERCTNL
Protocol: (§1) AChE from electrophorus electricus and BuChE from equine serum was employed for Ellman’s assay. Each compound (5.0 mg) was dissolved in 1.0 ml of DMSO. […] Briefly, a mixture of phosphate buffer (2.0 ml, 0.1 M, pH = 8.0), 60.0 µl of DTNB solution, and 20.0 µl of AChE/BuChE was prepared, and 30.0 µl of the test compounds in different concentrations were then added to the mixture. Next, a solution of the substrate (acetylthiocholine iodide/butyrylthiocholine iodide, 20.0 µl) was added to the mixture after 10 min incubation at 25°C. All experiments were performed in triplicates, and the temperature of all solutions was controlled to be maintained at 25°C. […] The blank solution was used to validate the non-enzymatic hydrolysis of the substrate during the assessment. The blank solution was prepared by a mixture of 2.0 ml of buffer, 30.0 μl of DMSO, 60.0 μl of DTNB, and 20.0 μl of substrate. The rate of the enzymatic hydrolysis of the substrate was calculated, and % inhibition of the compounds was determined. The half maximal inhibitory concentration (IC50) values were graphically determined from inhibition curves (logarithm of the concentration of the tested compound versus percent of the inhibition).

[2] = target: T2, 15-LOX (soybean lipoxygenase) (Glycine max, UniProt P08170); assay: Soybean 15-LOX inhibition assay; format: biochemical
T2 construct: purchased Merck or Aldrich
T2 sequence (P08170 1-839): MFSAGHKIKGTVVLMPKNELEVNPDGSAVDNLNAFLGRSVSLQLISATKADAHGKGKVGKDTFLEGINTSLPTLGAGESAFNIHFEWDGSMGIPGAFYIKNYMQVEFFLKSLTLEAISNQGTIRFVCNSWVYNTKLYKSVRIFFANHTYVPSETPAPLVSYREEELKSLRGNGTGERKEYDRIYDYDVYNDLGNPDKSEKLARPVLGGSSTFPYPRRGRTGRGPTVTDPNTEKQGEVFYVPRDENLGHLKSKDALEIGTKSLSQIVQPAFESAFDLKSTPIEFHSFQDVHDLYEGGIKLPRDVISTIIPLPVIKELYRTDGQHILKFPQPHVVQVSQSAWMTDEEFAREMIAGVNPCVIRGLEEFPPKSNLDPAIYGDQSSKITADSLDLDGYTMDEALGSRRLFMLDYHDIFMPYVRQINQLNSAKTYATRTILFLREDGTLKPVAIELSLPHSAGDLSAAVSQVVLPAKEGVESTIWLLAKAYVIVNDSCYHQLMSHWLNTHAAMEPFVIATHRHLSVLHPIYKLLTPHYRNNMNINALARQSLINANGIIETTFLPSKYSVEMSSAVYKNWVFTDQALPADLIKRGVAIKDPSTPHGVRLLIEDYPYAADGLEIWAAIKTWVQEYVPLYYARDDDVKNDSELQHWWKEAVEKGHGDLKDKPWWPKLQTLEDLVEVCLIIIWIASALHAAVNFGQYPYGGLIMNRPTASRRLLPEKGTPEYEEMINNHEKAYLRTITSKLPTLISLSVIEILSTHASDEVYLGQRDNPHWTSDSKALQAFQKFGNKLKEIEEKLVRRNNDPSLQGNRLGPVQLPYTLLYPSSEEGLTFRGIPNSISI
Protocol: A solution of the target compound was prepared in DMSO, and it was diluted with phosphate buffer (0.1 M, pH = 8.0).

[3] = target: T3, BuChE (from equine serum) (Equus caballus, UniProt P81908); assay: biochemical; format: biochemical; settings: for IC50: mean ± SEM of three experiments, read-out: eq BuChE IC50; for eq BuChE %inhib.: test concentration not given
T3 construct: BuChE from equine serum was employed for Ellman’s assay; purchased Merck or Aldrich; host or cells: equine serum
T3 sequence (P81908 whole entry): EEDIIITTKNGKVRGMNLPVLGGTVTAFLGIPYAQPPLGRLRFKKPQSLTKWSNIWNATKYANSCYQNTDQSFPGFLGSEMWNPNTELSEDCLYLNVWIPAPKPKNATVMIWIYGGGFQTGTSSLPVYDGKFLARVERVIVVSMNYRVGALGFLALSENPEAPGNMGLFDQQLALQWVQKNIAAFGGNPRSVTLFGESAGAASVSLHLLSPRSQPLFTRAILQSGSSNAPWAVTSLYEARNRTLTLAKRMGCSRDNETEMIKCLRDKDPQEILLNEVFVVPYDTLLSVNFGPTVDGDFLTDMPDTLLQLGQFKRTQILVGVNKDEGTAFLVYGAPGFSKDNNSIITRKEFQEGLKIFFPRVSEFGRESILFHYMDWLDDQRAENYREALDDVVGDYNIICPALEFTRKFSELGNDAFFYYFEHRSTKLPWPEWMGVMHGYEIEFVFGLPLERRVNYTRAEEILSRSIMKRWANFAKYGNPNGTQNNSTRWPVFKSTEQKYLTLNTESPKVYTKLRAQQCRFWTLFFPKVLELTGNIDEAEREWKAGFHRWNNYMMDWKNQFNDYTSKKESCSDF
Protocol: as §1

Aβ1-42 = target: T4, Aβ1-42 (Homo sapiens, UniProt P05067); assay: Self-induced Aβ1-42 aggregation (ThT assay); format: biochemical; settings: Aβ1-42 10.0 μM, compound 100.0 μM, ThT
T4 construct: was used to dissolve amyloid β1-40 (Sigma A1075); purchased Sigma A1075
T4 sequence (P05067 672-711): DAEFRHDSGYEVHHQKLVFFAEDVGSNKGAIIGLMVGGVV

in vitro = format: cell-based; settings: MTT, read-out: PC12 viability percent (cytotoxicity)
Protocol: The cytotoxic effect of the selected compounds (8l and 8n) on the PC12 cell line was evaluated by using the MTT-based colorimetric assay. First, the PC12 cell line was cultivated in DMEM culture medium, supplemented with fetal bovine serum (10%). […]. Thereafter, the culture medium of each well was replaced by 20 µl MTT solution (5.0 mg/ml) and incubated to form formazan crystals, followed by dissolving them in DMSO (100.0 µl) and recording the related absorbance at 570 nm using a Synergy 2 multimode plate reader (Biotek, Winooski, VT, United States). The viability percent was then calculated according to the control well, where no compound was added to the related well. The mentioned protocol was repeated in triplicates, and the mean ± SEM of the obtained results was reported.

[4] = soybean lipoxygenase, linoleic acid substrate, read-out: 15-LOX IC50

Structure (SMILES): O=c1oc2ccccc2cc1-c1ccc(OCc2cn(Cc3ccccc3F)nn2)cc1 [8b, 3-(4-((1-(2-Fluorobenzyl)-1H-1,2,3-triazol-4-yl)methoxy)phenyl)-2H-chromen-2-one]
- ee AChE %inhib. [1]: 11.2%
- IC50 [2]: 16.5 ± 0.7 µM
- IC50 [3]: 36.5 ± 1.1 µM

Structure (SMILES): COc1cc2c(cc1OC)C(=O)C(CC1CCN(Cc3ccccc3)CC1)C2 (stereo not drawn) [Donepezil, donepezil, reference compound]
- Inhibition of self-induced Aβ1-42 aggregation (Aβ1-42): 42.5 ± 0.3%

Structure (SMILES): O=c1oc2ccc([N+](=O)[O-])cc2cc1-c1ccc(OCc2cn(Cc3ccccc3)nn2)cc1 [8v, 3-(4-((1-Benzyl-1H-1,2,3-triazol-4-yl)methoxy)phenyl)-6-nitro-2H-chromen-2-one]
- ee AChE %inhib. [1]: 48.3%
- IC50 [2]: > 100 µM
- IC50 [3]: 6.3 ± 0.4 µM

Structure (SMILES): O=c1oc2ccccc2cc1-c1ccc(OCc2cn(Cc3cccc([N+](=O)[O-])c3)nn2)cc1 [8i, 3-(4-((1-(3-Nitrobenzyl)-1H-1,2,3-triazol-4-yl)methoxy)phenyl)-2H-chromen-2-one]
- ee AChE %inhib. [1]: 49.9%
- IC50 [2, 4]: > 100 µM

Structure (SMILES): COc1cccc2cc(-c3ccc(OCc4cn(Cc5ccc(Cl)cc5)nn4)cc3)c(=O)oc12 [8r, 3-(4-((1-(4-Chlorobenzyl)-1H-1,2,3-triazol-4-yl)methoxy)phenyl)-8-methoxy-2H-chromen-2-one]
- ee AChE %inhib. [1]: 41.5%
- IC50 [2]: > 100 µM
- IC50 [3]: 6.7 ± 0.4 µM

Structure (SMILES): O=c1oc2ccccc2cc1-c1ccc(OCc2cn(Cc3ccc(Br)cc3)nn2)cc1 [8g, 3-(4-((1-(4-Bromobenzyl)-1H-1,2,3-triazol-4-yl)methoxy)phenyl)-2H-chromen-2-one]
- ee AChE %inhib. [1]: 35.5%
- IC50 [2, 4]: > 100 µM
- eq BuChE %inhib. [3]: 46.7%

Structure (SMILES): O=c1oc2ccccc2cc1-c1ccc(OCc2cn(Cc3ccc(F)cc3)nn2)cc1 [8d, 3-(4-((1-(4-Fluorobenzyl)-1H-1,2,3-triazol-4-yl)methoxy)phenyl)-2H-chromen-2-one]
- ee AChE %inhib. [1]: 32.4%
- IC50 [2]: 45.2 ± 1.5 µM
- eq BuChE %inhib. [3]: 12.7%

Structure (SMILES): O=c1oc2ccccc2cc1-c1ccc(OCc2cn(Cc3ccc([N+](=O)[O-])cc3)nn2)cc1 [8j, 3-(4-((1-(4-Nitrobenzyl)-1H-1,2,3-triazol-4-yl)methoxy)phenyl)-2H-chromen-2-one]
- ee AChE %inhib. [1]: 14.7%
- IC50 [2, 4]: > 100 µM

Structure (SMILES): O=c1oc2ccc([N+](=O)[O-])cc2cc1-c1ccc(OCc2cn(Cc3ccccc3F)nn2)cc1 [8w, 3-(4-((1-(2-Fluorobenzyl)-1H-1,2,3-triazol-4-yl)methoxy)phenyl)-6-nitro-2H-chromen-2-one]
- ee AChE %inhib. [1]: 16.6%
- IC50 [2, 4]: > 100 µM
- eq BuChE %inhib. [3]: 30.4%

Structure (SMILES): O=c1oc2ccccc2cc1-c1ccc(OCc2cn(Cc3ccc(Cl)cc3)nn2)cc1 [8f, 3-(4-((1-(4-Chlorobenzyl)-1H-1,2,3-triazol-4-yl)methoxy)phenyl)-2H-chromen-2-one]
- ee AChE %inhib. [1]: 41.4%
- IC50 [2, 4]: > 100 µM
- eq BuChE %inhib. [3]: 23.6%

Structure (SMILES): O=c1oc2ccc(Br)cc2cc1-c1ccc(OCc2cn(Cc3ccc(Br)cc3)nn2)cc1 [8t, 6-Bromo-3-(4-((1-(4-bromobenzyl)-1H-1,2,3-triazol-4-yl)methoxy)phenyl)-2H-chromen-2-one]
- ee AChE %inhib. [1]: 15.1%
- IC50 [2, 4]: > 100 µM

Structure (SMILES): COc1cccc2cc(-c3ccc(OCc4cn(Cc5ccccc5[N+](=O)[O-])nn4)cc3)c(=O)oc12 [8s, 8-Methoxy-3-(4-((1-(2-nitrobenzyl)-1H-1,2,3-triazol-4-yl)methoxy)phenyl)-2H-chromen-2-one]
- ee AChE %inhib. [1]: 27.4%
- IC50 [2, 4]: > 100 µM
- eq BuChE %inhib. [3]: 42.5%

Structure (SMILES): COc1ccc(Cn2cc(COc3ccc(-c4cc5ccccc5oc4=O)cc3)nn2)cc1 [8m, 3-(4-((1-(4-Methoxybenzyl)-1H-1,2,3-triazol-4-yl)methoxy)phenyl)-2H-chromen-2-one]
- ee AChE %inhib. [1]: 26.6%
- IC50 [2]: 41 ± 1.4 µM
- eq BuChE %inhib. [3]: 40.2%

Structure (SMILES): COc1cccc2cc(-c3ccc(OCc4cn(Cc5ccc(F)cc5)nn4)cc3)c(=O)oc12 [8q, 3-(4-((1-(4-Fluorobenzyl)-1H-1,2,3-triazol-4-yl)methoxy)phenyl)-8-methoxy-2H-chromen-2-one]
- ee AChE %inhib. [1]: 38.1%
- IC50 [2]: 35 ± 1.3 µM
- IC50 [3]: 18.9 ± 0.9 µM

Structure (SMILES): O=c1oc2ccc(Br)cc2cc1-c1ccc(OCc2cn(Cc3ccccc3F)nn2)cc1 [8u, 6-Bromo-3-(4-((1-(2-fluorobenzyl)-1H-1,2,3-triazol-4-yl)methoxy)phenyl)-2H-chromen-2-one]
- ee AChE %inhib. [1]: 45.1%
- IC50 [2, 4]: 61.5 ± 1.9 µM
- eq BuChE %inhib. [3]: 46.6%

Structure (SMILES): O=c1oc2ccccc2cc1-c1ccc(OCc2cn(Cc3ccccc3[N+](=O)[O-])nn2)cc1 [8h, 3-(4-((1-(2-Nitrobenzyl)-1H-1,2,3-triazol-4-yl)methoxy)phenyl)-2H-chromen-2-one]
- ee AChE %inhib. [1]: 20.8%
- IC50 [2, 4]: > 100 µM

Structure (SMILES): O=c1oc2ccccc2cc1-c1ccc(OCc2cn(Cc3cccc(F)c3)nn2)cc1 [8c, 3-(4-((1-(3-Fluorobenzyl)-1H-1,2,3-triazol-4-yl)methoxy)phenyl)-2H-chromen-2-one]
- ee AChE %inhib. [1]: 15.3%
- IC50 [2]: 28.3 ± 1.4 µM
- eq BuChE %inhib. [3]: 48.9%

Structure (SMILES): O=c1oc2ccccc2cc1-c1ccc(OCc2cn(Cc3ccccc3Cl)nn2)cc1 [8e, 3-(4-((1-(2-Chlorobenzyl)-1H-1,2,3-triazol-4-yl)methoxy)phenyl)-2H-chromen-2-one]
- ee AChE %inhib. [1]: 37.3%
- IC50 [2, 4]: > 100 µM

Structure (SMILES): Cc1cccc(Cn2cc(COc3ccc(-c4cc5ccccc5oc4=O)cc3)nn2)c1 [8k, 3-(4-((1-(3-Methylbenzyl)-1H-1,2,3-triazol-4-yl)methoxy)phenyl)-2H-chromen-2-one]
- ee AChE %inhib. [1]: 27.4%
- IC50 [2, 4]: 53.5 ± 1.5 µM
- eq BuChE %inhib. [3]: 37.1%

Structure (SMILES): O=c1oc2ccccc2cc1-c1ccc(OCc2cn(Cc3ccccc3)nn2)cc1 [8a, 3-(4-((1-Benzyl-1H-1,2,3-triazol-4-yl)methoxy)phenyl)-2H-chromen-2-one]
- ee AChE %inhib. [1]: 23.6%
- IC50 [2]: 36.2 ± 1.5 µM
- IC50 [3]: 27.6 ± 1.3 µM

Structure (SMILES): COc1cccc2cc(-c3ccc(OCc4cn(Cc5ccccc5F)nn4)cc3)c(=O)oc12 [8o, 3-(4-((1-(2-Fluorobenzyl)-1H-1,2,3-triazol-4-yl)methoxy)phenyl)-8-methoxy-2H-chromen-2-one]
- ee AChE %inhib. [1]: 4.0%
- IC50 [2]: 14.2 ± 0.4 µM
- eq BuChE %inhib. [3]: 8.0%

Structure (SMILES): COc1cccc2cc(-c3ccc(OCc4cn(Cc5cccc(F)c5)nn4)cc3)c(=O)oc12 [8p, 3-(4-((1-(3-Fluorobenzyl)-1H-1,2,3-triazol-4-yl)methoxy)phenyl)-8-methoxy-2H-chromen-2-one]
- ee AChE %inhib. [1]: 29.8%
- IC50 [2]: 22.6 ± 0.8 µM
- eq BuChE %inhib. [3]: 41.7%

Structure (SMILES): Nc1c2c(nc3ccccc13)CCCC2 [Tacrine, tacrine, reference compound]
- viability at 24 h, 50 µM (in vitro): 67.3 ± 1.3%
